Source: ChEMBL document CHEMBL1141313 (Bioorg Med Chem, 2007)

Legend:
[1] = target: Protease (Human immunodeficiency virus 1) (UniProt Q9YQ12); assay: (§1) Inhibition of HIV1 protease
[2] = target: T1, Protease (Human immunodeficiency virus 1, UniProt Q9YQ12); assay: as §1
Target sequence in this assay (Q9YQ12 whole entry): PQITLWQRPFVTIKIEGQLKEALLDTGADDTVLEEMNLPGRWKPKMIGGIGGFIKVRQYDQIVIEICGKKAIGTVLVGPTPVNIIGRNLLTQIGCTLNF

[3] = tested on: Human immunodeficiency virus 1; assay: Antiviral activity against protease inhibitor-resistant HIV1 isolate; type: functional, organism-based
[4] = target: T1, Protease; assay: Inhibition of HIV1 protease mutant
Target sequence in this assay (Q9YQ12 1-99): as the sequence (Q9YQ12 whole entry) above

[5] = tested on: Human immunodeficiency virus 1; assay: Antiviral activity against HIV1 in CEM cells; type: functional; details: Human immunodeficiency virus 1, CCRF-CEM; for IC50: read-out: ID50 (the source's name)
[6] = tested on: Human immunodeficiency virus 1; assay: Antiviral activity against HIV1 in MT4 cells; type: functional

Protease (Human immunodeficiency virus 1), sequence (Q9YQ12 as listed by the source): as the sequence (Q9YQ12 whole entry) above

## COC(=O)N[C@H](C(=O)NCCCC[C@@H](CO)N(CC(C)C)S(=O)(=O)c1ccc(N)cc1)C(c1ccccc1)c1ccccc1
[1]
  Activity: < 20 nM

## C=CCNC(=O)[C@H]1NC(C(=O)[C@@H](O)[C@H](Cc2ccccc2)NC(=O)c2cccc(O)c2)SC1(C)C (stereo partly drawn)
[2]
  Ki: 0.1 nM
[3]
  EC50: 34 nM
[4]
  Ki: 0.1 nM

## CC(C)(C)NC(=O)[C@@H]1C[C@@H]2CCCC[C@@H]2CN1C[C@@H](O)[C@H](Cc1ccccc1)NC(=O)O[C@H]1CO[C@H]2OCC[C@H]21
[5]; read-out: CIC95
  IC95: 46 nM
[2]
  IC50: 1.8 nM

## CC(C)CN(C[C@@H](O)[C@H](Cc1ccccc1)NC(=O)O[C@@H]1C[C@@H]2CCO[C@@H]2C1)S(=O)(=O)c1ccc(CO)cc1
[2]
  IC50: 1.8 nM
  Ki: 0.0045 nM

## COc1ccc(S(=O)(=O)N(CC(C)C)C[C@@H](O)[C@H](Cc2ccccc2)NC(=O)O[C@H]2CO[C@H]3OCC[C@H]32)cc1
[5]
  IC50: 1.2 nM

## CC(C)CN(C[C@@H](O)[C@H](Cc1ccccc1)NC(=O)O[C@H]1CO[C@H]2OCC[C@H]21)S(=O)(=O)c1ccc(N)cc1
[5]
  IC50: 4.7 nM
[6]
  ID90: 10 nM
  TD50: >100 µM

## COC(=O)N[C@H](C(=O)NCCCC[C@@H](COP(=O)(O)O)N(CC(C)C)S(=O)(=O)c1ccc(N)cc1)C(c1ccccc1)c1ccccc1
[1]
  Activity: < 20 nM
